# Measurements published in patent US20180243211A1, “A PHARMACEUTICAL COMPOSITION FOR REDUCING LOCAL FAT AND USES THEREOF” (Caliway Biopharmaceuticals Co., Ltd., priority 2015, published 2018).
# System: mature adipocytes (differentiated 3T3-L1 cells)
# Experiment: Experiment 10-2: apoptosis of mature adipocytes (annexin V/PI flow cytometry), resveratrol with hydrophilic drugs
# Assay type: cell-based
# Details: 50 ppm total drug (complexes 20 ppm resveratrol + 30 ppm second drug), 24 hours; sterile water control 9.6±1.5%
# Description: A sterile water control group cell culture medium, a resveratrol cell culture medium, a caffeine cell culture medium, a L-carnitine cell culture medium, a resveratrol-caffeine complex cell culture medium, and a resveratrol-L-carnitine complex cell culture medium were prepared as follows: The sterile water control group cell culture medium: Sterile water was mixed with a cell culture medium to prepare the sterile water control group cell culture medium, wherein, the volume ratio between the sterile water and the cell culture medium is 1:1000. The resveratrol cell culture medium: it is the same method as the preparation of the resveratrol cell culture medium in Experiment 9-2. The caffeine cell culture medium: caffeine (purchased from Sigma-Aldrich) was mixed with an appropriate amount of sterile water to obtain a caffeine solution. The caffeine solution was mixed with a cell culture medium to prepare the caffeine cell culture medium containing 50 ppm of caffeine, wherein, the volume ratio between the caffeine solution and the cell culture medium is 1:1000. The L-carnitine cell culture medium: L-carnitine (purchased from Sigma-Aldrich) was mixed with an appropriate amount of sterile water to obtain a L-carnitine solution. The L-carnitine solution was mixed with a cell culture medium to prepare the L-carnitine cell culture medium containing 50 ppm of L-carnitine, wherein, the volume ratio between the L-carnitine solution and the cell culture medium is 1:1000. The resveratrol-caffeine complex cell culture medium: resveratrol, caffeine, and an appropriate amount of sterile water were mixed to obtain a resveratrol-caffeine complex solution. […] Annexin V protein (purchased from eBioscience) and propidium iodide (PI; purchased from eBioscience) were mixed with the cells in each group for a period of time, and then the percentage of cells labeled by annexin V protein and PI in each group was analyzed by flow cytometry to assess the percentage of mature adipocytes undergoing apoptosis.
row,SMILES,percentage of apoptotic cells
1,C[N+](C)(C)C[C@H](O)CC(=O)[O-] [L-carnitine],5.2±1.2%
2,Cn1c(=O)c2c(ncn2C)n(C)c1=O [caffeine],6.9±1.1%
3,Oc1ccc(C=Cc2cc(O)cc(O)c2)cc1 [resveratrol],19.0±1.1%

# System: mature adipocytes (differentiated 3T3-L1 cells)
# Experiment: Experiment 9-2: apoptosis of mature adipocytes (annexin V/PI flow cytometry), resveratrol with lipophilic drugs
# Assay type: cell-based
# Details: 50 ppm total drug (complexes 20 ppm resveratrol + 30 ppm second drug), 24 hours; DMSO control 4.9±2.5%
# Description: A DMSO control group cell culture medium, a resveratrol cell culture medium, a puerarin cell culture medium, a quercetin cell culture medium, a resveratrol-puerarin complex cell culture medium, and a resveratrol-quercetin complex cell culture medium were prepared as follows: The DMSO control group cell culture medium: DMSO was mixed with an appropriate amount of sterile water to obtain a 0.5% DMSO solution. The 0.5% DMSO solution was mixed with a cell culture medium (product name: Dulbecco's Modified Eagle Medium, purchased from Gibco) to prepare the DMSO control group cell culture medium, wherein, the volume ratio between the 0.5% DMSO solution and the cell culture medium is 1:1000. The resveratrol cell culture medium: resveratrol was mixed with an appropriate amount of 0.5% DMSO solution to obtain a resveratrol solution. The resveratrol solution was mixed with a cell culture medium (product name: Dulbecco's Modified Eagle Medium, purchased from Gibco) to prepare the resveratrol cell culture medium containing 50 ppm of resveratrol, wherein, the volume ratio between the resveratrol solution and the cell culture medium is 1:1000. The puerarin cell culture medium: puerarin (purchased from Sigma-Aldrich) was mixed with an appropriate amount of 0.5% DMSO solution to obtain a puerarin solution. The puerarin solution was mixed with a cell culture medium to prepare the puerarin cell culture medium containing 50 ppm of puerarin, wherein, the volume ratio between the puerarin solution and the cell culture medium is 1:1000. The quercetin cell culture medium: quercetin (purchased from Sigma-Aldrich) was mixed with an appropriate amount of 0.5% DMSO solution to obtain a quercetin solution. […] Annexin V protein (purchased from eBioscience) and propidium iodide (PI; purchased from eBioscience) were mixed with the cells in each group for a period of time, and then the percentage of cells labeled by annexin V protein and PI in each group was analyzed by flow cytometry to assess the percentage of mature adipocytes undergoing apoptosis. […]
row,SMILES,percentage of apoptotic cells
1,O=c1c(-c2ccc(O)cc2)coc2c([C@@H]3O[C@H](CO)[C@@H](O)[C@H](O)[C@H]3O)c(O)ccc12 [puerarin],7.2±3.7%
2,O=c1c(O)c(-c2ccc(O)c(O)c2)oc2cc(O)cc(O)c12 [quercetin],5.9±2.6%
3,Oc1ccc(C=Cc2cc(O)cc(O)c2)cc1 [resveratrol],19.1±1.1%
